Assay results reported in PubChem BioAssay AID272 (DTP/NCI, 2004).
“And” between values parts separate entries of the source, which are not always exact repeats. Identical values can stand only once. Inconclusive results are not listed.

Tested on: Lewis lung carcinoma i.m., BDF1 mice, T/C %
Assay: NCI In Vivo Anticancer Drug Screen. Data for tumor model Lewis Lung Carcinoma (intramuscular) in B6D2F1 (BDF1) mice
Summary of the method: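 Mice carrying transplantable tumours received test compound. Survival or tumour size was recorded and expressed as the treated-group value (T) divided by the vehicle-treated control-group value (C).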

Structure (SMILES): CC[C@]1(O)C[C@H]2CN(CCc3c([nH]c4ccccc34)[C@@](C(=O)OC)(c3cc4c(cc3OC)N(C=O)[C@H]3[C@@](O)(C(=O)OC)[C@H](OC(C)=O)[C@]5(CC)C=CCN6CC[C@]43[C@@H]65)C2)C1
- T/C (endpoint: mean tumor weight (est.), dose: 0.05 mg/kg/injection, schedule: Q01DX009 (ip), vehicle: water, higher = larger tumour): 57 % of control
- T/C (endpoint: mean tumor weight (est.), dose: 0.08 mg/kg/injection, schedule: Q01DX009 (ip), vehicle: water, higher = larger tumour): 99 % of control
- T/C (endpoint: mean tumor weight (est.), dose: 0.14 mg/kg/injection, schedule: Q01DX009 (ip), vehicle: water, higher = larger tumour): 69 % of control
- T/C (endpoint: mean tumor weight (est.), dose: 0.23 mg/kg/injection, schedule: Q01DX009 (ip), vehicle: water, higher = larger tumour): 55 % of control
- T/C (endpoint: mean tumor weight, dose: 0.12 mg/kg/injection, schedule: Q01DX011 (ip), vehicle: water, higher = larger tumour): 116 % of control
- T/C (endpoint: mean tumor weight, dose: 0.14 mg/kg/injection, schedule: Q01DX009 (ip), vehicle: water, higher = larger tumour): 46 % of control
- T/C (endpoint: mean tumor weight, dose: 0.23 mg/kg/injection, schedule: Q01DX009 (ip), vehicle: water, higher = larger tumour): 49 % of control
- T/C (endpoint: mean tumor weight, dose: 0.25 mg/kg/injection, schedule: Q01DX011 (ip), vehicle: water, higher = larger tumour): 105 % of control
- T/C (endpoint: median survival time, dose: 0.05 mg/kg/injection, schedule: Q01DX004 (ip), vehicle: water, higher = longer survival): 107 % of control
- T/C (endpoint: median survival time, dose: 0.05 mg/kg/injection, schedule: Q09DX009 (ip), vehicle: water, higher = longer survival): 92 % of control
- T/C (endpoint: median survival time, dose: 0.06 mg/kg/injection, schedule: Q01DX011 (ip), vehicle: water, higher = longer survival): 102 % of control and 104 % of control
- T/C (endpoint: median survival time, dose: 0.08 mg/kg/injection, schedule: Q01DX004 (ip), vehicle: water, higher = longer survival): 110 % of control
- T/C (endpoint: median survival time, dose: 0.08 mg/kg/injection, schedule: Q09DX009 (ip), vehicle: water, higher = longer survival): 113 % of control
- T/C (endpoint: median survival time, dose: 0.12 mg/kg/injection, schedule: Q01DX011 (ip), vehicle: water, higher = longer survival): 92 % of control and 123 % of control
- T/C (endpoint: median survival time, dose: 0.14 mg/kg/injection, schedule: Q01DX004 (ip), vehicle: water, higher = longer survival): 98 % of control
- T/C (endpoint: median survival time, dose: 0.14 mg/kg/injection, schedule: Q01DX009 (ip), vehicle: none, higher = longer survival): 158 % of control
- T/C (endpoint: median survival time, dose: 0.23 mg/kg/injection, schedule: Q01DX004 (ip), vehicle: water, higher = longer survival): 81 % of control
- T/C (endpoint: median survival time, dose: 0.23 mg/kg/injection, schedule: Q01DX009 (ip), vehicle: none, higher = longer survival): 121 % of control
- T/C (endpoint: median survival time, dose: 0.23 mg/kg/injection, schedule: Q01DX009 (ip), vehicle: water, higher = longer survival): 123 % of control
- T/C (endpoint: median survival time, dose: 0.25 mg/kg/injection, schedule: Q01DX011 (ip), vehicle: water, higher = longer survival): 105 % of control
- T/C (endpoint: median survival time, dose: 0.39 mg/kg/injection, schedule: Q01DX004 (ip), vehicle: water, higher = longer survival): 56 % of control
- T/C (endpoint: median survival time, dose: 0.39 mg/kg/injection, schedule: Q01DX009 (ip), vehicle: none, higher = longer survival): 50 % of control
- T/C (endpoint: median survival time, dose: 0.39 mg/kg/injection, schedule: Q09DX009 (ip), vehicle: water, higher = longer survival): 58 % of control
- T/C (endpoint: median survival time, dose: 0.65 mg/kg/injection, schedule: Q01DX009 (ip), vehicle: none, higher = longer survival): 36 % of control

Structure (SMILES): C[C@]12CC[C@H](OC3OC(CO)C(O)C(O)C3O)C[C@H]1CC[C@@H]1[C@@H]2CC[C@]2(C)[C@@H](C3=CCOC3=O)CC[C@]12O (stereo not given in full)
- T/C (endpoint: median survival time, dose: 0.25 mg/kg/injection, schedule: Q01DX011 (ip), vehicle: saline, higher = longer survival): 110 % of control

Structure (SMILES): O=Nc1c(N=O)c(N=O)c(N=O)c(N=O)c1N=O
- T/C (endpoint: median survival time, dose: 5.0 mg/kg/injection, schedule: Q01DX011 (ip), vehicle: saline with Tween-80, higher = longer survival): 110 % of control
- T/C (endpoint: median survival time, dose: 10.0 mg/kg/injection, schedule: Q01DX011 (ip), vehicle: saline with Tween-80, higher = longer survival): 106 % of control
- T/C (endpoint: median survival time, dose: 20.0 mg/kg/injection, schedule: Q01DX011 (ip), vehicle: saline with Tween-80, higher = longer survival): 115 % of control

Structure (SMILES): Nc1nc(CCl)nc(Nc2ccccc2)n1
- T/C (endpoint: mean tumor weight (est.), dose: 100.0 mg/kg/injection, schedule: Q01DX011 (ip), vehicle: saline with Tween-80, higher = larger tumour): 61 % of control
- T/C (endpoint: median survival time, dose: 100.0 mg/kg/injection, schedule: Q01DX011 (ip), vehicle: saline with Tween-80, higher = longer survival): 100 % of control

Structure (SMILES): O=C1CCCN1.O=C1CCCN1.[Br][Co][Br]
- T/C (endpoint: mean tumor weight, dose: 37.5 mg/kg/injection, schedule: Q01DX011 (ip), vehicle: water, higher = larger tumour): 84 % of control
- T/C (endpoint: mean tumor weight, dose: 75.0 mg/kg/injection, schedule: Q01DX011 (ip), vehicle: water, higher = larger tumour): 65 % of control
- T/C (endpoint: median survival time, dose: 37.5 mg/kg/injection, schedule: Q01DX011 (ip), vehicle: water, higher = longer survival): 95 % of control
- T/C (endpoint: median survival time, dose: 75.0 mg/kg/injection, schedule: Q01DX011 (ip), vehicle: water, higher = longer survival): 110 % of control

Structure (SMILES): CN(N=O)C(N)=O
- T/C (endpoint: median survival time, dose: 3.12 mg/kg/injection, schedule: Q01DX015 (ip), vehicle: saline, higher = longer survival): 98 % of control
- T/C (endpoint: median survival time, dose: 6.25 mg/kg/injection, schedule: Q01DX015 (ip), vehicle: saline, higher = longer survival): 103 % of control
- T/C (endpoint: median survival time, dose: 6.25 mg/kg/injection, schedule: Q07DX003 (ip), vehicle: saline, higher = longer survival): 94 % of control
- T/C (endpoint: median survival time, dose: 12.5 mg/kg/injection, schedule: Q01DX015 (ip), vehicle: saline, higher = longer survival): 115 % of control
- T/C (endpoint: median survival time, dose: 12.5 mg/kg/injection, schedule: Q07DX003 (ip), vehicle: saline, higher = longer survival): 93 % of control
- T/C (endpoint: median survival time, dose: 25.0 mg/kg/injection, schedule: Q07DX003 (ip), vehicle: saline, higher = longer survival): 86 % of control
